The assay addresses T1, HEK cells stably transfected with tetracycline inducible hNR1 and hNR2A (Homo sapiens, UniProt Q05586+Q12879).
T1 construct: expressed in transfected cells; host or cells: HEK cells, stably transfected, tetracycline/doxycycline inducible
Kind of assay: Assay 1: Cell-Based Assay, cytosolic calcium response to positive allosteric modulators (with 30 μM glycine and 300 nM L-glutamate, EC30). Particulars: for Max %: responses scaled relative to 100 μM L-glutamate maximal response (100%) and 0 μM L-glutamate (0%); for EC50: cytosolic calcium response, with 30 μM glycine and 300 nM L-glutamate (EC30), — = no plateau was reached. A digest of the protocol:
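Cells induced 24 h with 7.5 μg mL^−1 doxycycline plus 500 μM (+)-ketamine, loaded 60 min at 37 °C with calcium dye in Mg-free HBSS (1.8 mM Ca, probenecid, 10 μM (+)-ketamine, pH 7.15). Peak RFU over 5 min after compound addition, scaled to 100 μM L-glutamate (100%) and 0 μM (0%); four-parameter Hill fit for EC50, max % if no plateau.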

T1 sequence (Q12879 23-1464, other chains not shown): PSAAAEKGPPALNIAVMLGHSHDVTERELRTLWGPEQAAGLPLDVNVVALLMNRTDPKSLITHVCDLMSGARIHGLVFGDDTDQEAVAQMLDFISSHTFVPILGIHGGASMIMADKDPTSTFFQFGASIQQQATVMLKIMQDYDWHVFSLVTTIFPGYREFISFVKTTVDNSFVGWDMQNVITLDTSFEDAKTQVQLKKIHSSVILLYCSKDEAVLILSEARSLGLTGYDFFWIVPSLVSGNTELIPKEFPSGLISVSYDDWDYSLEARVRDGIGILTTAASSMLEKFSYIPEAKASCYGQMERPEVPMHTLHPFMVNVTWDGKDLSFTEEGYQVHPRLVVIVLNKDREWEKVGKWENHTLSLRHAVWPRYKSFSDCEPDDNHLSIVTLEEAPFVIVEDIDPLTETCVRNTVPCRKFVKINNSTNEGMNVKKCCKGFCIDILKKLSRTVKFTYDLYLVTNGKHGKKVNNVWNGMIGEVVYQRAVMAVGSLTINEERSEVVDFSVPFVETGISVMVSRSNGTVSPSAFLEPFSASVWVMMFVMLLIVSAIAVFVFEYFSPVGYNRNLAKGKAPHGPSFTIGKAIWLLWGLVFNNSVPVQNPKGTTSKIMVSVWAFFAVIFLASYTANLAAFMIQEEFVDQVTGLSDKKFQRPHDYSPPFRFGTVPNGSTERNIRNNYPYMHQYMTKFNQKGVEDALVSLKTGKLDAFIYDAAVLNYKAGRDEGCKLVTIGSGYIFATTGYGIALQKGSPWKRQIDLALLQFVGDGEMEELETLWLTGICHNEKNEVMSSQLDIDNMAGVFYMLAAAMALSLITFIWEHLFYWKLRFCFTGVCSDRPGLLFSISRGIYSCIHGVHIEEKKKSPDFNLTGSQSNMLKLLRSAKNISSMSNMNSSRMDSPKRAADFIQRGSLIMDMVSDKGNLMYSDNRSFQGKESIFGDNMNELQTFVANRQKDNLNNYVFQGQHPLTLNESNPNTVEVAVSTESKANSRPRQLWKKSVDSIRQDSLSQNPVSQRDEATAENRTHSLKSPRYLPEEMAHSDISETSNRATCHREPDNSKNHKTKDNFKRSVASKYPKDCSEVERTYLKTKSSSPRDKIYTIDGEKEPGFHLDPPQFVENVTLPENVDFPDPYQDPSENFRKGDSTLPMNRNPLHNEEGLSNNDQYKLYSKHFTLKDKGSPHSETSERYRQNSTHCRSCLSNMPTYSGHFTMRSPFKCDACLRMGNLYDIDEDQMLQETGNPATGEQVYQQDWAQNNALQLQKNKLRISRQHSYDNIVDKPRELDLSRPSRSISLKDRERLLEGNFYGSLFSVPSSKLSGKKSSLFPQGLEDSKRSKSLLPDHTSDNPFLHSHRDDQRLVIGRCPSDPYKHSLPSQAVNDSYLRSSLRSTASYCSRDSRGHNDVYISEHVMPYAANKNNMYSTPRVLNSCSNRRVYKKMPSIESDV

On to `Cc1sc2nc(COc3ccc(F)cc3)cc(=O)n2c1C1(O)COC1` [Example 4.32, 7-((4-fluorophenoxy)methyl)-3-(3-hydroxyoxetan-3-yl)-2-methyl-5H-thiazolo[3,2-a]pyrimidin-5-one], for which the Max % (Table 2) is reported as 50.2%.
One may read the EC50 as the concentration giving half of the maximal effect. Turning to `N#CC1CC1c1c(Cl)sc2nc(Cn3nc(C(F)(F)F)cc3Cl)cc(=O)n12` (single isomer, unassigned) [compound 266], the 50% effective concentration (EC50) (Table 3) is 24.9 nM.
Same read-out and setting: in the case of `Cc1sc2nc(Cn3nc(C(F)(F)F)cc3Cl)cc(=O)n2c1[C@@H]1C[C@@H]1C#N` (single isomer, unassigned) [compound 126] it was 249 nM; in that of `N#CC1CC1c1c(C(F)(F)F)sc2nc(Cn3nc(C(F)(F)F)cc3Cl)cc(=O)n12` (single isomer, unassigned) [compound 208], 370 nM.
Regarding `CCNC(=O)c1c(OC)sc2nc(Cc3cccc(C(F)(F)F)c3F)cc(=O)n12` [compound 91, N-Ethyl-7-[[2-fluoro-3-(trifluoromethyl)phenyl]methyl]-2-methoxy-5-oxo-thiazolo[3,2-a]pyrimidine-3-carboxamide], the EC50 (Table 3) came out at 1030 nM.
With `Cc1sc2nc(Cn3nc(C(F)(F)F)cc3Cl)cc(=O)n2c1/C=C\C#N` [compound 263, (Z)-3-[7-[[5-chloro-3-(trifluoromethyl)pyrazol-1-yl]methyl]-2-methyl-5-oxo-thiazolo[3,2-a]pyrimidin-3-yl]prop-2-enenitrile], the EC50 (Table 3) was found to be 501 nM.
With `Cc1sc2nc(COc3ccc(F)cc3)cc(=O)n2c1C(O)C(F)(F)F` (centres unmarked) [Example 2.10, 7-((4-fluorophenoxy)methyl)-2-methyl-3-(2,2,2-trifluoro-1-hydroxyethyl)-5H-thiazolo[3,2-a]pyrimidin-5-one], the Max % (Table 2) came out at 119%.
On to `O=c1cc(Cn2nc(C(F)(F)F)cc2Cl)nc2scc(Cl)n12` [compound 235, 3-chloro-7-[[5-chloro-3-(trifluoromethyl)pyrazol-1-yl]methyl]thiazolo[3,2-a]pyrimidin-5-one], for which, for the setting “Table 3”, the EC50 came to 21200 nM.
`CCN(Cc1cc(=O)n2c(C#N)c(C)sc2n1)c1ccc(F)cc1` [Example 7.3, 7-[(N-ethyl-4-fluoro-anilino)methyl]-2-methyl-5-oxo-thiazolo[3,2-a]pyrimidine-3-carbonitrile]: where the note is “Table 2”, the EC50 amounted to 376 nM and the Max % was 156%.
Consider `CNC(=O)c1c(C)sc2nc(Cc3cccc(C(F)(F)F)c3F)cc(=O)n12` [Example 21.4], for which, under “Table 2”, the EC50 amounted to 7400 nM and the Max % was found to be 129%.
On to `CCN(Cc1cc(=O)n2c(N3CCCC3)c(C)sc2n1)c1ccc(F)cc1` [Example 6.3, 7-((ethyl(4-fluorophenyl)amino)methyl)-2-methyl-3-(pyrrolidin-1-yl)-5H-thiazolo[3,2-a]pyrimidin-5-one], for which, under “Table 2”, the 50% effective concentration (EC50) came out at 10100 nM and the Max % stood at 91.9%.
Consider `CCNC(=O)c1c(C)sc2nc(Cc3cc(C)cc(C#N)c3F)cc(=O)n12` [compound 49, 7-[(3-cyano-2-fluoro-5-methyl-phenyl)methyl]-N-ethyl-2-methyl-5-oxo-thiazolo[3,2-a]pyrimidine-3-carboxamide], for which the EC50 (Table 3) was determined as 17500 nM.
As for `CCNC(=O)c1c(C)sc2nc(Cc3cccc(C4(O)CC4)c3F)cc(=O)n12` [compound 33, N-ethyl-7-[[2-fluoro-3-(1-hydroxycyclopropyl)phenyl]methyl]-2-methyl-5-oxo-thiazolo[3,2-a]pyrimidine-3-carboxamide], under “Table 3”, the EC50 was 6430 nM.
For `Cc1sc2nc(Cn3nc(C(F)(F)F)cc3Cl)cc(=O)n2c1C1CC1CO` (centres unmarked) [compound 102, 7-[[5-chloro-3-(trifluoromethyl)pyrazol-1-yl]methyl]-3-[2-(hydroxymethyl)cyclopropyl]-2-methyl-thiazolo[3,2-a]pyrimidin-5-one], the half-maximal effective concentration (EC50) (Table 3) came out at 54.7 nM.
For `Cc1ccc(C#N)cc1Cc1cc(=O)n2c([C@@H]3C[C@H]3CO)c(C)sc2n1` (relative stereo) [Example 20.6, 3-((3-(trans-2-(hydroxymethyl)cyclopropyl)-2-methyl-5-oxo-5H-thiazolo[3,2-a]pyrimidin-7-yl)methyl)-4-methylbenzonitrile], for the setting “Table 2”, the EC50 was found to be 7200 nM and the Max % turned out to be 137%.
Regarding `CCNC(=O)c1c(C)sc2nc(Cc3cc(F)ccc3C(F)(F)F)cc(=O)n12` [Example 21.34, N-ethyl-7-(5-fluoro-2-(trifluoromethyl)benzyl)-2-methyl-5-oxo-5H-thiazolo[3,2-a]pyrimidine-3-carboxamide], the Max % (Table 2) came to 79.9%.
On to `CCN(Cc1cc(=O)n2c(C#N)c(C)sc2n1)c1cccc(F)c1` [Example 7.2, 7-((ethyl(3-fluorophenyl)amino)methyl)-2-methyl-5-oxo-5H-thiazolo[3,2-a]pyrimidine-3-carbonitrile], for which, where the note is “Table 2”, the EC50 came to 612 nM and the Max % was determined as 134%.
`Cc1sc2nc(Cn3nc(C(F)(F)F)cc3Cl)cc(=O)n2c1Br` [compound 215, 3-bromo-7-[[5-chloro-3-(trifluoromethyl)pyrazol-1-yl]methyl]-2-methyl-thiazolo[3,2-a]pyrimidin-5-one]: the EC50 (Table 3) was 91.1 nM.
For `Cc1sc2nc(Cn3ccc(C(F)(F)F)n3)cc(=O)n2c1C1CC1C#N` (single isomer, unassigned) [compound 273], the concentration for a half-maximal effect (EC50) (Table 3) is 2080 nM.
Regarding `CCN(Cc1cc(=O)n2c3c(sc2n1)CCC3(C)C)c1ccc(F)cc1` [Example 8.8, 6-[(N-ethyl-4-fluoro-anilino)methyl]-1,1-dimethyl-2,3-dihydrocyclopenta[3,4]thiazolo[1,4-a]pyrimidin-8-one], under “Table 2”, the EC50 is 8700 nM and the Max % was found to be 108%.
On to `Cc1sc2nc(COc3ccc(Cl)cc3)cc(=O)n2c1[C@@H]1C[C@H]1CO` (relative stereo) [Example 4.8, 7-(4-Chlorophenoxymethyl)-3-[trans-2-(hydroxymethyl)cyclopropyl]-2-methyl-5H-[1,3]thiazolo[3,2-a]pyrimidin-5-one], for which, for the setting “Table 2”, the EC50 worked out at 4400 nM and the Max % is on record as 99.3%.
In the same order, the values of `Cc1sc2nc(CN(CC(F)(F)F)c3ccc(F)cc3)cc(=O)n2c1-c1cncnc1` [Example 5.3, 7-(((4-fluorophenyl)(2,2,2-trifluoroethyl)amino)methyl)-2-methyl-3-(pyrimidin-5-yl)-5H-thiazolo [3,2-a]pyrimidin-5-one] are 2200 nM and 177%.
For `Cc1sc2nc(Cn3nc(C(F)(F)F)cc3Cl)cc(=O)n2c1C(C)CO` (centres unmarked) [compound 222, 7-[[5-Chloro-3-(trifluoromethyl)pyrazol-1-yl]methyl]-3-(2-hydroxy-1-methyl-ethyl)-2-methyl-thiazolo[3,2-a]pyrimidin-5-one], under “Table 3”, the concentration for a half-maximal effect (EC50) was 2920 nM.
In the case of `CNC(=O)c1c(C)sc2nc(Cc3cccc(CF)c3F)cc(=O)n12` [Example 21.68, 7-[[2-fluoro-3-(fluoromethyl)phenyl]methyl]-N,2-dimethyl-5-oxo-thiazolo[3,2-a]pyrimidine-3-carboxamide], for the setting “Table 2”, the EC50 amounted to 4200 nM and the Max % is 111%.
For the molecule `CCNC(=O)c1c(C)sc2nc(Cc3cc(F)ccc3Cl)cc(=O)n12` [Example 21.32, 7-(2-chloro-5-fluorobenzyl)-N-ethyl-2-methyl-5-oxo-5H-thiazolo[3,2-a]pyrimidine-3-carboxamide], the Max % (Table 2) amounted to 84.3%.
Consider `CNC(=O)Cc1c(C(F)(F)F)sc2nc(Cc3cccc(C(F)(F)F)c3F)cc(=O)n12` [compound 75, 2-[7-[[2-fluoro-3-(trifluoromethyl)phenyl]methyl]-5-oxo-2-(trifluoromethyl)thiazolo[3,2-a]pyrimidin-3-yl]-N-methyl-acetamide], for which the concentration for a half-maximal effect (EC50) (Table 3) was 28900 nM.
Same read-out and setting: in the case of `CCNC(=O)c1c(OCC)sc2nc(Cn3nc(Cl)cc3C(F)(F)F)cc(=O)n12` [compound 176, 7-[[3-chloro-5-(trifluoromethyl)pyrazol-1-yl]methyl]-2-ethoxy-N-ethyl-5-oxo-thiazolo[3,2-a]pyrimidine-3-carboxamide] it was 8920 nM.
On to `CCN(Cc1cc(=O)n2c(-c3ccco3)c(C)sc2n1)c1ccc(F)cc1` [Example 5.45, 7-((ethyl(4-fluorophenyl)amino)methyl)-3-(furan-2-yl)-2-methyl-5H-thiazolo[3,2-a]pyrimidin-5-one], for which, where the note is “Table 2”, the half-maximal effective concentration (EC50) was 214 nM and the Max % was 139%.
Regarding `CCN(Cc1cc(=O)n2c(C)c(C)sc2n1)c1ccc(F)cc1` [Example 5.23, 7-[(N-ethyl-4-fluoro-anilino)methyl]-2,3-dimethyl-thiazolo[3,2-a]pyrimidin-5-one], where the note is “Table 2”, the EC50 was 2600 nM and the Max % worked out at 135%.
Turning to `CCN(Cc1cc(=O)n2c(C3CCCCC3)c(C)sc2n1)c1ccc(F)cc1` [Example 9.1, 3-cyclohexyl-7-[[ethyl(4-fluorophenyl)amino]methyl]-2-methyl-5H-[1,3]thiazolo[3,2-a]pyrimidin-5-one], the Max % (Table 2) is recorded as 48.1%.
On to `CCN(Cc1cc(=O)n2c(-c3cncc(Cl)c3)c(C)sc2n1)c1ccc(F)cc1` [Example 5.31, 3-(5-chloro-3-pyridyl)-7-[(N-ethyl-4-fluoro-anilino)methyl]-2-methyl-thiazolo[3,2-a]pyrimidin-5-one], for which, under “Table 2”, the EC50 is 2700 nM and the Max % turned out to be 132%.
With `CCNC(=O)c1c(C)sc2nc(Cc3cc(C#N)ccc3C(F)(F)F)cc(=O)n12` [Example 21.40, 7-(5-cyano-2-(trifluoromethyl)benzyl)-N-ethyl-2-methyl-5-oxo-5H-thiazolo[3,2-a]pyrimidine-3-carboxamide], the Max % (Table 2) is 61.6%.

The values are drawn from patent publication US9988400B2 (Genentech, Inc., priority 2013, dated 2018).
